These results are taken from article PMC8633584, “Patient mutations in human ATP:cob(I)alamin adenosyltransferase differentially affect its catalytic versus chaperone functions” (The Journal of Biological Chemistry, 2021).

For experiment [1], the target named is T1, E193K ATR (Homo sapiens, UniProt Q96EY8, E193K).
T1 sequence (Q96EY8 38-250 E193K limits assumed): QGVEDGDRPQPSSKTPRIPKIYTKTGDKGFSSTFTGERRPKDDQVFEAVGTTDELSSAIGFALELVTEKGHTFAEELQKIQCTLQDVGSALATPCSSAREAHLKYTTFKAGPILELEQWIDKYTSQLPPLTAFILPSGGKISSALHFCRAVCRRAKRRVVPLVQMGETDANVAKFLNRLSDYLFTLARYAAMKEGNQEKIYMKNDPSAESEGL
The following applies: 1.1:1.0:1.0 E193K ATR:AdoCbl:PPPi. On the procedure:
(§1) The samples were prepared in an anaerobic chamber and contained: PPPi (1 mM), WT, R190C or E193K ATR (1.1 mM active sites), MgCl2 (2 mM), AdoCbl (1 mM) in 50 mM Hepes buffer pH 7.5 containing 150 mM KCl and 2 mM DTT at room temperature. The samples were transferred to 5-mm (internal diameter) NMR tubes (Wilmad-Glass), and the final volume was brought up to 0.4 ml with 90% water and 10% D2O (Cambridge Isotope Labs).
(§2) […] NMR spectra were collected at 242.5 MHz on a Bruker AVANCE NEO spectrometer equipped with a prodigy cryoprobe locked to D2O. All the NMR experiments were carried out at 25 °C using 12 μs 90° pulse widths, 8192 data points, and 4096 scans with 0.8 s recycle time. The chemical shifts were reported on proton-decoupled spectra by Gaussian line fits to the singlet resonances, relative to an external standard of 85% H3P0_4.

Experiment [2] deals with T2, R190C ATR (Homo sapiens, UniProt Q96EY8, R190C).
T2 sequence (Q96EY8 38-250 R190C limits assumed): T1 sequence (Q96EY8 38-250 E193K limits assumed) with R153C, K156E
The following applies: 1.1:1.0:1.0 R190C ATR:AdoCbl:PPPi. On the procedure:
as §1, §2

The target in experiment [3] is T3, WT ATR (Homo sapiens, UniProt Q96EY8).
T3 sequence (Q96EY8 38-250 limits assumed): T1 sequence (Q96EY8 38-250 E193K limits assumed) with K156E
Conditions: WT ATR 1.1 mM active sites, PPPi 1 mM, no AdoCbl. On the procedure:
as §1, §2

Experiment [4] deals with T4, R190H ATR (Homo sapiens, UniProt Q96EY8, R190H).
T4 construct: The expression construct for recombinant human full-length and ΔN18 ATR in a pET-28b vector; His-tag (thrombin-cleavable) (N, cleaved yes); made in house; host or cells: E. coli BL21 (DE3)
T4 sequence (Q96EY8 38-250 R190H limits assumed): T1 sequence (Q96EY8 38-250 E193K limits assumed) with R153H, K156E
The experiment is described as follows: AdoCbl binding to ATR, UV-visible titration. On the procedure: (§3) Unless noted otherwise, all titration experiments were performed in buffer A. AdoCbl binding was monitored by adding increasing concentrations of WT or mutant ATR to 30 μM AdoCbl in buffer A at 20 °C. The spectrum was recorded 5 min after each addition. The concentration of bound AdoCbl was determined using […] = 8.0 cm^−1 mM^−1. The change in absorbance at 455 nm (corresponding to base-off AdoCbl bound to ATR) was plotted versus ATR concentration and fitted using the Dynafit software (BioKin) ([35]). Equation 1 (where A is the absorbance at 455 nm following each aliquot of ATR, ΔAmax is the maximal change in absorbance at 455 nm upon binding of AdoCbl to ATR, [E]t is the concentration of ATR active sites, and [L]t is the total AdoCbl concentration) was used to determine the dissociation constant for AdoCbl.(1) A=ΔAmax×([E]t+[L]t+Kd)+([E]t+[L]t+Kd)^2−4[L]t[E]t/2[L]t
(§4) The effect of PPPi on the KD for AdoCbl was determined by performing the above titration in the presence of 1 mM PPPi under anaerobic conditions.

Experiment [5] deals with T1, E193K ATR. In words: AdoCbl binding to ATR, UV-visible titration. Details: WT and the R190C variants of ΔN18-ATR and full-length E193K ATR were purified; His-tag (thrombin-cleavable) (N, cleaved yes); made in house; host or cells: E. coli BL21 (DE3). How it is done: as §3, §4
Experiment [6] has as its target T2, R190C ATR. In words: AdoCbl binding to ATR, UV-visible titration. Details: The expression construct for recombinant human full-length and ΔN18 ATR in a pET-28b vector; His-tag (thrombin-cleavable) (N, cleaved yes); made in house; host or cells: E. coli BL21 (DE3). On the procedure: as §3, §4
For experiment [7], the target named is T3, WT ATR. In words: AdoCbl binding to ATR, UV-visible titration. Also on record: The expression construct for recombinant human full-length and ΔN18 ATR in a pET-28b vector; His-tag (thrombin-cleavable) (N, cleaved yes); made in house; host or cells: E. coli BL21 (DE3). On the procedure: as §3, §4
Experiment [8] concerns the target T4, R190H ATR. In words: AdoCbl synthesis, steady-state kinetics. The experiment is classed as biochemical. On the procedure: (§5) AdoCbl synthesis was determined by mixing cob(II)alamin (40 μM) in buffer A at 20 °C with ∼10 equivalents of titanium citrate under strictly anaerobic conditions. The reaction was started by addition of ATP (1 mM) and ATR (1 μM trimer concentration). The concentration of cob(I)alamin formed by reduction of cob(II)alamin was estimated using ε386nm = 28.0 cm^−1 mM^−1. The rate of AdoCbl synthesis was determined by measuring the change in absorbance at 522 nm using Δ ε522nm =5.06 mM^−1 cm^−1.

The target in experiment [9] is T1, E193K ATR. In words: AdoCbl synthesis, steady-state kinetics. Also on record: WT and the R190C variants of ΔN18-ATR and full-length E193K ATR were purified; His-tag (thrombin-cleavable) (N, cleaved yes); made in house; host or cells: E. coli BL21 (DE3). It counts as biochemical. How it is done:
as §5

Experiment [10] addresses T2, R190C ATR. The experiment is described as follows: AdoCbl synthesis, steady-state kinetics. It counts as biochemical. Also on record: The expression construct for recombinant human full-length and ΔN18 ATR in a pET-28b vector; His-tag (thrombin-cleavable) (N, cleaved yes); made in house; host or cells: E. coli BL21 (DE3). How it is done:
as §5

Experiment [11] concerns the target T3, WT ATR. In words: AdoCbl synthesis, steady-state kinetics. It counts as biochemical. Details: The expression construct for recombinant human full-length and ΔN18 ATR in a pET-28b vector; His-tag (thrombin-cleavable) (N, cleaved yes); made in house; host or cells: E. coli BL21 (DE3). How it is done:
as §5

The structures appear in SMILES notation. Positions count from the first letter of the chain named.

As for `O=P(O)(O)OP(=O)(O)OP(=O)(O)O` [PPPi, inorganic triphosphate], the “PPPi binding by 31P NMR” value in [1] is given as “did not lead to detectable PPPi binding”; in experiment [2] it was “did not lead to detectable PPPi binding”; in experiment [3] it was “not bound to the protein”.

In general, Kd refers to a measure of binding affinity in units of concentration. Take `C/C1=C2/[N-][C@H]([C@H](CC(N)=O)[C@@]2(C)CCC(=O)NC[C@@H](C)OP(=O)([O-])O[C@H]2[C@@H](O)[C@@H](n3cnc4cc(C)c(C)cc43)O[C@@H]2CO)[C@]2(C)N=C(/C(C)=C3N=C(/C=C4N=C1[C@@H](CCC(N)=O)C\4(C)C)[C@@H](CCC(N)=O)[C@]\3(C)CC(N)=O)[C@@H](CCC(N)=O)[C@]2(C)CC(N)=O.[CH2-][C@H]1O[C@@H](n2cnc3c(N)ncnc32)[C@H](O)[C@@H]1O.[Co+3]` [AdoCbl, 5′-deoxyadenosylcobalamin]: the Kd was found to be 13 ± 3 µM in experiment [4] (1 mM PPPi, anaerobic); 50 ± 5 µM in experiment [4] (without PPPi, buffer A, 20 °C); 100 ± 20 µM in experiment [5] (1 mM PPPi, anaerobic); 120 ± 30 µM in experiment [5] (without PPPi, buffer A, 20 °C); 4 ± 1 µM in [6] (1 mM PPPi, anaerobic); 40 ± 6 µM in experiment [6] (without PPPi, buffer A, 20 °C). In addition, the Kd in experiment [7] (1 mM PPPi, anaerobic) was 0.2 ± 0.1 µM; in experiment [7] (without PPPi, buffer A, 20 °C), 1 ± 0.3 µM. Moreover, the figures for the “lower KD(AdoCbl) in the presence of PPPi” value in experiment [4] (PPPi 1 mM) and in experiment [6] (PPPi 1 mM) were 3.9 fold and 10 fold, respectively. Besides, the “effect of PPPi on KD for AdoCbl” value in experiment [5] (PPPi 1 mM) is reported as “no effect”. Besides, the “decrease of KD for AdoCbl by PPPi” value in [7] (PPPi 1 mM) was determined as 5 fold.

The term kcat denotes the number of substrate molecules converted per active site and unit of time at saturation. The Km is the substrate concentration at which the rate is half of its maximum. `Nc1ncnc2c1ncn2[C@@H]1O[C@H](COP(=O)(O)OP(=O)(O)OP(=O)(O)O)[C@@H](O)[C@H]1O` [ATP]: the “lower activity (kcat) relative to WT ATR” value in experiment [8] (R190H ATR vs WT) is given as 115 fold; in [10] (R190C ATR vs WT), 16 fold. The kcat in experiment [8] (R190H ATR, AdoCbl synthesis, cob(II)alamin 40 μM, titanium citrate, anaerobic, 20 °C) was 0.0017 ± 0.0017 s⁻¹; in [9] (E193K ATR, AdoCbl synthesis, cob(II)alamin 40 μM, titanium citrate, anaerobic, 20 °C) it was 0.18 ± 0.01 s⁻¹; in experiment [10] (R190C ATR, AdoCbl synthesis, cob(II)alamin 40 μM, titanium citrate, anaerobic, 20 °C), 0.012 ± 0.0017 s⁻¹; in experiment [11] (AdoCbl synthesis, cob(II)alamin 40 μM, titanium citrate, anaerobic, 20 °C), 0.192 ± 0.0267 s⁻¹. For the same compound, the “increase of KM for ATP relative to WT ATR” value was 52 fold in [9] (E193K ATR vs WT) and 20 fold in experiment [10] (R190C ATR vs WT). The Km in experiment [9] (E193K ATR, read-out: KM (ATP)) worked out at 235 ± 16 µM; in experiment [10] (R190C ATR, read-out: KM (ATP)), 92 ± 31 µM; in experiment [11] (read-out: KM (ATP)), 4.5 ± 1.1 µM.
